# Measurements reported in PubChem BioAssay AID1250 (SRMLSC, 2008).
# Activity calls are given as the source filed them.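 Rule for the calls: active = inhibition of at least 30% at one or more tested concentrations; inactive = inhibition below 30% at every dose.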
# Experiment: inhibitors of Bluetongue virus cytopathic effect, confirmation, arbovirus, BSR cells (AID 1250)
# Details: BSR cells, Bluetongue virus CPE, ATP luminescence, 72 h; at 20 µM (top of the series)
row,Structure (SMILES),CPE inhibition
1,O=C(Nc1nc(-c2ccc3c(c2)OCO3)cs1)C1COc2ccccc2O1 (stereo not drawn),22.7% (inactive)
2,Cn1c(Oc2ccccc2NCc2cc(Br)ccc2O)cc(=O)n(C)c1=O,14.3% (inactive)
3,Cc1cccc(OCC(=O)Nc2cccc(C(=O)Nc3ccccc3C(=O)O)c2)c1,27.3% (inactive)
4,O=C1NC(=Nc2ccc(Cl)cc2)SC1Cc1cccc(Cl)c1Cl (stereo not drawn),12.4% (inactive)
5,CCCCN(CCCC)CC(O)COc1ccccc1Br (stereo not drawn),15.3% (inactive)
6,Cc1ccc(C(=O)N/C(=C\c2cccs2)C(=O)NCc2cccnc2)cc1,10.2% (inactive)
7,Cc1ccc(O)c(-c2cc(C(=O)Nc3ccc(S(=O)(=O)Nc4nc(C)cc(C)n4)cc3)[nH]n2)c1,21.8% (inactive)
8,COC(=O)[C@H](Cc1ccccc1)NC(=O)O[C@@H]1C(=O)c2cc(OC)ccc2O[C@H]1c1ccc(OC)c(Br)c1,13.7% (inactive)
9,O=C(O)c1ccc2[nH]c3c(c2c1)CSCC3,2.13% (inactive)
10,COC(=O)c1ccccc1NC(=O)CN1CCC(NC(=O)c2ccc(C)cc2)CC1,21.3% (inactive)
11,CC(C)CSC1=NSC2=NC(=O)/C(=C\c3cccs3)C(=N)N12,28.6% (inactive)
12,N#Cc1c(NC(=O)C2CC(Cl)=CCC2C(=O)O)sc2c1CCCCC2 (stereo not drawn),17.1% (inactive)
13,OC(CNC1CCCCC1)CNC1CCCCC1,7.57% (inactive)
14,CCCn1c(N)c(C(=O)CSc2nc3ccccc3c(=O)n2-c2ccc(OC)cc2)c(=O)[nH]c1=O,1.41% (inactive)
15,CCCN(CCC)C(=O)CSc1nc2c(sc(=S)n2-c2ccc(OCC)cc2)c(=O)[nH]1,28.7% (inactive)
16,N#CC(C#N)=Cc1cc2ccccc2nc1N1CCCCC1,12.6% (inactive)
17,COCCn1c(-c2ccc(Cl)cc2)cnc1SCC(=O)NCc1cccs1,18.9% (inactive)
18,CC(C)(C)C1CCc2c(sc(NC(=O)C3CC=CCC3C(=O)O)c2C#N)C1 (stereo not drawn),26.8% (inactive)
19,O=C(Nc1cccc(NC(=O)c2cccs2)c1)c1ccco1,20.1% (inactive)
20,CCOC(=O)c1csc(NC(=O)CC2CCCC2)n1,6.07% (inactive)
21,CCOC(=O)c1sc(NC(=S)NC(=O)c2cccc(Cl)c2)c(C(=O)OCC)c1C,1.04% (inactive)
22,Cc1cccc(-n2c3nc(=O)[nH]c(=O)c-3cc3cc([N+](=O)[O-])ccc32)c1,16.1% (inactive)
23,COc1ccc(NS(=O)(=O)c2cc(NC(=O)/C=C/c3cccs3)ccc2N2CCOCC2)cc1,18.4% (inactive)

row,Structure (SMILES),CPE inhibition
1,O=C(O)c1ccccc1CSc1ccccn1,2.46% (inactive)
2,CCCC(=O)Oc1ccccc1C1SCc2cc(C)c(C)cc2CS1,6.38% (inactive)
3,CC(C)c1ccc(C2=C(O)c3ccccc3C(=O)C2=O)cc1,14.3% (inactive)
4,FC(F)(F)c1ccc(Oc2ccc3ccccc3c2Br)nc1,1.17% (inactive)
5,COc1ccc(S(=O)(=O)N/N=C(/C)c2cccc(NC(=O)c3ccccc3Cl)c2)cc1,15% (inactive)
6,O=c1oc(-c2ccccc2)nc2sc3c(c12)CCCC3,24.9% (inactive)
7,CCOC(=O)c1ccc(NC(=O)Cn2nnc(-c3ccccc3)n2)cc1,12.9% (inactive)
8,N#C/C(=C\c1cc2ccccc2nc1N1CCCCC1)C(N)=O,22.5% (inactive)
9,CCOc1ccc(-n2c(C)cc(/C=C3/C(=N)N4C(=NC3=O)SN=C4S(C)(=O)=O)c2C)cc1,25.5% (inactive)
10,Cc1ccc2nc(NC(=O)C3CCCN(S(=O)(=O)c4cnc[nH]4)C3)sc2c1 (stereo not drawn),22.3% (inactive)
11,CC(C)(C)c1ccc(N/N=C(\C#N)S(=O)(=O)C(C)(C)C)cc1,23.9% (inactive)
12,C=CCN(C(=O)c1cccc(N2C(=O)C3CC=CC(C)C3C2=O)c1)c1ccccc1 (stereo not drawn),8.5% (inactive)
13,COc1ccc(F)cc1C(=O)C1CCCN(C(=O)CSc2ccccn2)C1 (stereo not drawn),17.6% (inactive)
14,Nc1c(-c2ccccc2)c(CSc2nc3ccccc3[nH]2)nn1-c1cccc(Cl)c1,23.8% (inactive)
15,CC1=NN2C(=N)/C(=C\c3ccc(SCc4ccccc4)o3)C(=O)N=C2S1,21.1% (inactive)
16,O=C1CN(C(=O)/C=C/c2ccc(Cl)cc2)c2ccccc2N1,7.62% (inactive)
17,COC(=O)c1sccc1NC(=O)CSc1ccccc1NS(=O)(=O)c1ccc(Br)cc1,18.5% (inactive)
18,COc1cccc(C2=CC(c3ccc(C)cc3)n3ncnc3N2)c1 (stereo not drawn),22.6% (inactive)
19,O=C(Nc1scc(-c2ccc(F)cc2)c1C(=O)O)c1ccco1,10% (inactive)
20,O=C1c2ccccc2N2C(=O)c3ccccc3[C@H]2N1c1ccccc1,2.15% (inactive)
21,Fc1ccccc1N1CCN(Cc2nc(-c3ccc(Cl)cc3Cl)no2)CC1,19.9% (inactive)
22,O=C(O)CCn1cc(/C=C/C(=O)c2ccc(Cl)cc2)c(-c2ccc(Br)cc2)n1,13.8% (inactive)
23,COCCSc1nnc(NC(=O)C2CCCCC2)s1,6.07% (inactive)

row,Structure (SMILES),CPE inhibition
1,NC(=O)c1cc([N+](=O)[O-])ccc1NCc1cccnc1,3.11% (inactive)
2,O=c1/c(=C/c2ccc(O)c([N+](=O)[O-])c2)sc2nc3ccccc3n12,12.4% (inactive)
3,COC(=O)c1cc(NC(=S)NCc2ccc(Cl)cc2)cc(C(=O)OC)c1,-1.18% (inactive)
4,COc1cccc(CN=C2Nc3ccccc3CS2)c1,-0.42% (inactive)
5,Fc1ccc2nc(Nc3nc4c(F)cccc4s3)sc2c1,20.9% (inactive)
6,COc1cc(-c2nnc(-c3ccc(N4CCOCC4)cc3)o2)cc(OC)c1OC,8.33% (inactive)
7,CS(=O)(=O)c1nsc2nc(=O)c(/C=C3\C=Nc4ccccc43)c(N)n12,14.8% (inactive)
8,Cc1nn(-c2ccccc2)c2nc(C(F)(F)F)[nH]c(=O)c12,20% (inactive)
9,Oc1ccc(Br)cc1-c1nc2cnccn2c1NC1CCCC1,16.6% (inactive)
10,OC(CNCC1(N2CCCCC2)CCCCC1)COc1ccc(Cl)cc1Cl (stereo not drawn),11.6% (inactive)
11,O=C(O)C(Cc1ccccc1)N=Cc1c(O)c2ccccc2oc1=O (stereo not drawn),7.31% (inactive)
12,O=C(Nc1ccccc1C(=O)O)c1ccc(Br)c(S(=O)(=O)NCc2ccccc2)c1,21.6% (inactive)
13,Cc1ccc(N2C(=O)C3CC(c4ccccc4)=C4C5C=CC(C6C(=O)N(c7ccc(C)cc7)C(=O)C56)C4C3C2=O)cc1 (stereo not drawn),11.8% (inactive)
14,CCCc1cc(=O)[nH]c(SCC(=O)NC)n1,-0.15% (inactive)
15,Cc1cccc2c1nc(-c1ccccc1)n1nnnc21,-3.74% (inactive)
16,COc1ccc2cc(-c3cc(C(=O)O)c4ccccc4n3)ccc2c1,12.7% (inactive)
17,Cc1csc(NC(=O)CN2C(=O)C3CC=CCC3C2=O)n1 (stereo not drawn),1.87% (inactive)
18,CCc1cccc(C)c1NC(=O)CN(C)Cc1ccc(Br)cc1,10.2% (inactive)
19,Oc1ccc(-c2n[nH]c(=S)n2-c2ccc3c(c2)OCCO3)c(O)c1,18.1% (inactive)
20,N#CCCN(Cc1cccnc1)C(=S)Nc1ccc(OC(F)F)cc1,3.08% (inactive)
21,CSc1nc(C)c(CCO)c(=O)[nH]1,3.71% (inactive)
22,CCC1=NN2C(=N)/C(=C\c3cccn3-c3ccc(C)cc3C)C(=O)N=C2S1,27.2% (inactive)
